According to US10765625B2, “Knottin-drug conjugates and methods of using the same” (THE BOARD OF TRUSTEES OF THE LELAND STANFORD JUNIOR …, priority 2016, dated 2020):

How the values were obtained:
Type in all cases: cell-based
[1] = system: U87MG cells; assay: Premature drug release study: cell proliferation (CCK-8) with hENT1 inhibitor 6 co-administered; conditions: for Fold Increase in ED50 in U87MG Cells: ED50 with 6 / ED50 without 6, minus 1
Experimental: (§1) U87MG, and PANC-1 cells were grown in Dulbecco's Modified Eagle Medium (DMEM) with 10% fetal bovine serum (FBS) and 1% penicillin/streptomycin. MDA-MB-468 cells were grown in DMEM and Ham's F-12 medium (DMEM/F12) with 10% FBS and 1% penicillin/streptomycin. A2780 and BxPC3 cells were grown in Roswell Park Memorial Institute medium (RPMI) 1640+L-glutamine, with 10% FBS and 1% penicillin/streptomycin. D270 cells were grown in MEM (Richter's modification, no phenol red) with 10% FBS and 0.1% Gentamicin. Unless otherwise specified, cells were incubated at 37° C., 5% CO2. Flow cytometry was performed using an EMD Millpore Guava EasyCyte 8HT flow cytometer and the resulting data were evaluated using FlowJo software provided by TreeStar, Inc. Cell proliferation was measured using the Dojindo Cell Counting Kit-8 by replacing the media in each well with 100 μL of media containing 10% WST-8. After incubation for 1 h at 37° C., absorbance, A, at 450 nm was measured with a BioTek Synergy H4 microtiter plate reader. The background signal of CCK-8 alone was subtracted from all samples. Cell proliferation was then expressed as a percentage of absorbance relative to the control of untreated cells (Equation 2). Nonlinear regression analysis was performed using GraphPad Prism.
The relative extent of premature drug-release in the cases of 5a, 5c, and 5d was next determined in order to identify the linker best-suited for delivering the drug payload intracellularly. An established technique for blocking the cellular uptake of Gemcitabine by using S (4-nitrobenzyl)-6-thioinosine (6) was employed, which is known to inhibit human equilibrative nucleoside transporters, such as hENT1. Because hENT1 is a critical regulator of the cellular internalization of Gemcitabine, it was reasoned that by inhibiting its activity with 6, the cytotoxic effect of any drug payload that was released in the extracellular environment could be diminished. It was anticipated that this would allow the distinction between KDCs that were potent due to the undesirable release of Gemcitabine outside of the cell from those that released Gemcitabine intracellularly (FIG. 6). The extent of premature drug release in the extracellular environment was studied by inhibiting activity of nucleoside transporters (such as hENT1) of U87MG cells through the use of the hENT1 inhibitor S-(4-nitrobenzyl)-6-thioinosine (6). […] In a similar fashion, it was expected that for KDCs which released a significant amount of the drug payload in the extracellular environment, an increase in the concentration of 6 should result in a concomitant increase in ED50 value.
Media used to prepare varying concentrations of drug, protein, or protein-drug conjugate also contained varying concentrations of the hENT1 inhibitor, 6. Additionally, prior to treatment, cell were incubated at 37° C., 5% CO2 with fresh media containing the varying concentrations of 6 for 2 h. Cell proliferation was measured using the Cell Counting Kit-8 by replacing the media in each well with 100 μL of media containing 10% WST-8. After incubation for 1 h at 37° C., absorbance at 450 nm was measured with a Synergy H4 microtiter plate reader. ED50 values were determined by nonlinear regression analysis. Example dose-response curves for 3 (FIG. 7) and 5d (FIG. 8) are provided. Cell proliferation was measured according to the method described in Section 1.3. Error bars represent the standard deviation of experiments performed in triplicate.
These values were normalized as Fold Increase in ED50 (defined in Equation 2) by dividing the ED50 of each drug when 6 was co-administered at concentration=C by the ED50 of that same drug when no 6 was added, then subtracting 1 (thus, a “0-fold increase” would mean no increase, while a “1-fold increase” would mean that the ED50 value had doubled). Fold Increase in ED50 for each drug at each concentration of 6 is provided in Table 5, and these values were used to generate FIG. 9.

[2] = system: U87MG cells; assay: Integrin-blocking competition: cell proliferation (CCK-8) after pre-treatment with EETI-2.5F (1); conditions: 1 μM 1, 3 h pre-treatment and co-treatment
Experimental: as §1
One possible explanation for the apparent hENT1-independence of 5d is that its route of internalization could be integrin-mediated. The role of integrin-binding in the biological potency and hENT1-independence of 5d was determined. A competition experiment was carried out in which U87MG cells were pre-treated with unconjugated EETI-2.5F (1) in order to block integrins on the cell surface. The role of integrin-binding was studied by measuring the proliferation of U87MG cells that had been pre-treated with EETI-2.5F (1) when exposed to increasing doses of 3 and KDCs 5a, 5c, and 5d. […] Media used to prepare varying concentrations of drug, protein, or protein-drug conjugate also contained 1 μM of 1. Prior to treatment, cells were incubated for 3 h at 37° C., 5% CO2 with fresh media containing 1 μM 1. After this pre-treatment, cells were incubated with varying concentrations of 5a, 5c, or 5d for 24 h and then media was replaced with fresh media and cells were incubated for an additional 48 h. Cell proliferation was measured using the Cell Counting Kit-8 by replacing the media in each well with 100 μL of media containing 10% WST-8. After incubation for 1 h at 37° C., absorbance at 450 nm was measured with a Synergy H4 microtiter plate reader. Cell proliferation was measured according to the method described in Section 1.3. Error bars represent the standard deviation of experiments performed in triplicate.

[3] = system: A2780 ovarian cancer cells; assay: Cell proliferation, CCK-8 colorimetric assay; conditions: 4 d after treatment, read-out: ED50 (nM), cell growth inhibition
Experimental: as §1
(§2) Having identified KDC 5d as a potent inhibitor of U87MG cells with desirable payload-release properties, its efficacy against a variety of other cell lines in comparison with Gemcitabine (3) was next tested. Cells were seeded in a 96-well plate at a density of 2,500 cells per well and grown overnight at 37° C., 5% CO2 in the media described in Section 1.3. Cells were subsequently treated with 100 μL of fresh media, containing 50 nM of 3 or 5d. Cells were incubated at 37° C., 5% CO2 for 4 d. Cell proliferation was measured using the Cell Counting Kit-8 by replacing the media in each well with 100 μL of media containing 10% WST-8. After incubation for 1 h at 37° C., absorbance at 450 nm was measured with a Synergy H4 microtiter plate reader. Cell proliferation was measured according to the method described in Section 1.3. Error bars represent the standard deviation of experiments performed in triplicate.

[4] = system: BxPC3 pancreatic cancer cells; assay: Cell proliferation, CCK-8 colorimetric assay; conditions: 4 d after treatment, read-out: ED50 (nM), cell growth inhibition
Experimental: as §1, §2

[5] = system: D270 glioblastoma cells; assay: Cell proliferation, CCK-8 colorimetric assay; conditions: 4 d after treatment, read-out: ED50 (nM), cell growth inhibition
Experimental: as §1, §2

[6] = system: MDA-MB-468 breast cancer cells; assay: Cell proliferation, CCK-8 colorimetric assay; conditions: 4 d after treatment, read-out: ED50 (nM), cell growth inhibition
Experimental: as §1, §2

[7] = system: PANC-1 pancreatic cancer cells; assay: Cell proliferation, CCK-8 colorimetric assay; conditions: 4 d after treatment, read-out: ED50 (nM), cell growth inhibition
Experimental: as §1, §2

CC(C)C[C@@H]1NC(=O)[C@@H]2CSSC[C@@H](C(=O)NCC(=O)O)NC(=O)[C@H](Cc3ccccc3)NC(=O)CNC(=O)[C@H](CC(N)=O)NC(=O)[C@@H]3CCCN3C(=O)CNC(=O)[C@@H]3CSSC[C@H](NC(=O)[C@H]([C@@H](C)O)NC(=O)[C@H](CC(C)C)NC(=O)[C@@H]4CCCN4C(=O)[C@@H]4CCCN4C(=O)[C@H](CC(N)=O)NC(=O)[C@H](CC(=O)O)NC(=O)CNC(=O)[C@H](CCCNC(=N)N)NC(=O)[C@@H]4CCCN4C(=O)[C@H](CCCNC(=N)N)NC(=O)[C@@H]4CCCN4C(=O)[C@@H](NC(=O)CN)CSSC[C@H](NC(=O)CNC(=O)[C@H](C)NC1=O)C(=O)N[C@@H](C(C)C)C(=O)N3)C(=O)N[C@@H](CCCn1cc(CCC(=O)N[C@H](C(=O)N[C@@H](C)C(=O)Nc3ccc(COC(=O)Nc4ccn([C@@H]5O[C@H](CO)[C@@H](O)C5(F)F)c(=O)n4)cc3)C(C)C)nn1)C(=O)N[C@@H](CCC(N)=O)C(=O)N[C@@H](CC(=O)O)C(=O)N[C@@H](CO)C(=O)N[C@@H](CC(=O)O)C(=O)N2 [5d]
Effect of hENT1 inhibitor 6 on potency (ED50) (in words) ([1]; U87MG cells, increasing concentrations of 6 up to 10 μM): no effect on the potency
Fold Increase in ED50 in U87MG Cells ([1]; [6] = 0 nM): 0
Fold Increase in ED50 in U87MG Cells ([1]; [6] = 1 nM): −0.3 ± 0.3
Fold Increase in ED50 in U87MG Cells ([1]; [6] = 10 nM): −0.6 ± 0.6
Fold Increase in ED50 in U87MG Cells ([1]; [6] = 100 nM): 0.6 ± 1.0
Fold Increase in ED50 in U87MG Cells ([1]; [6] = 1000 nM): 1.2 ± 1.2
Fold Increase in ED50 in U87MG Cells ([1]; [6] = 10000 nM): 8.1 ± 5.4
Effect of integrin blocking by pre-treatment with 1 on potency (in words) [2]: abolishes the potency
EC50 [3]: 2.3 ± 0.5 nM
EC50 [4]: 1.8 ± 0.8 nM
EC50 [5]: 7.9 ± 0.8 nM
EC50 [6]: 0.6 ± 0.1 nM
EC50 [7]: 2.1 ± 0.2 nM
